Test results: US6737383B1, “Herbicidal oxadiazolidines” (priority 1999, dated 2004)

Assays:
sugar beet = assay: Test B pre/postemergence sugar beet; assay type: in vivo, Beta vulgaris
Method in brief: (§1)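 Test chemicals in a non-phytotoxic solvent mixture with surfactant were sprayed preemergence onto planted seeds and postemergence onto plants 2 to 18 cm tall (1- to 4-leaf stage). After twelve to sixteen days in a greenhouse, injury was visually rated against untreated controls from 0 (no effect) to 10 (complete control).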

duck salad = assay: Test B flood test duck salad; assay type: in vivo, Heteranthera limosa
Method in brief: (§2)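 Flood test on plants grown to the 2-leaf stage; treated plants kept in greenhouse twelve to sixteen days, then visually rated against controls on a 0 (no effect) to 10 (complete control) scale.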

purple nutsedge = assay: Test B pre/postemergence purple nutsedge; assay type: in vivo, Cyperus rotundus
Method in brief: as §1

corn = assay: Test B pre/postemergence corn; assay type: in vivo, Zea mays
Method in brief: as §1

rape = assay: Test B pre/postemergence rape; assay type: in vivo, Brassica napus
Method in brief: as §1

blackgrass = assay: Test B pre/postemergence blackgrass; assay type: in vivo, Alopecurus myosuroides
Method in brief: as §1

wheat = assay: Test B pre/postemergence wheat; assay type: in vivo, Triticum aestivum
Method in brief: as §1

surinam grass = assay: Test B pre/postemergence surinam grass; assay type: in vivo, Brachiaria decumbens
Method in brief: as §1

crabgrass = assay: Test B pre/postemergence crabgrass; assay type: in vivo, Digitaria sanguinalis
Method in brief: as §1

giant foxtail = assay: Test B pre/postemergence giant foxtail; assay type: in vivo, Setaria faberii
Method in brief: as §1

wild oat = assay: Test B pre/postemergence wild oat; assay type: in vivo, Avena fatua
Method in brief: as §1

smallflower flatsedge = assay: Test B flood test smallflower flatsedge; assay type: in vivo, Cyperus difformis
Method in brief: as §2

soybean = assay: Test B pre/postemergence soybean; assay type: in vivo, Glycine max
Method in brief: as §1

morningglory = assay: Test B pre/postemergence morningglory; assay type: in vivo, Ipomoea hederacea
Method in brief: as §1

cocklebur = assay: Test B pre/postemergence cocklebur; assay type: in vivo, Xanthium strumarium
Method in brief: as §1

velvetleaf = assay: Test B pre/postemergence velvetleaf; assay type: in vivo, Abutilon theophrasti
Method in brief: as §1

[1] = Preemergence, Rate 62 g/ha, scale of 0 to 10 where 0 is no effect and 10 is complete control
[2] = Preemergence, Rate 250 g/ha, scale of 0 to 10 where 0 is no effect and 10 is complete control
[3] = Preemergence, Rate 500 g/ha, scale of 0 to 10 where 0 is no effect and 10 is complete control
[4] = Rate 62 g/ha, Postemergence, scale of 0 to 10 where 0 is no effect and 10 is complete control
[5] = Rate 125 g/ha, Postemergence, scale 0 to 10
[6] = Rate 125 g/ha, Preemergence, scale of 0 to 10 where 0 is no effect and 10 is complete control
[7] = Rate 500 g/ha, Postemergence, scale 0 to 10, 0 no effect, 10 complete control
[8] = Rate 62 g/ha, headed Pre-emergence (flood test species), scale 0 to 10 (0 no effect, 10 complete control)
[9] = Rate 125 g/ha, Pre-emergence, flood test species, scale 0 to 10 where 0 is no effect and 10 is complete control
[10] = Rate 250 g/ha, Pre-emergence, flood-test species, scale 0 to 10, 0 is no effect, 10 is complete control
[11] = Rate 500 g/ha, Pre-emergence, flood test species, scale 0 to 10 (0 no effect, 10 complete control)

## CCN(C(=O)n1oc(=O)n(C)c1=O)C1CCCCC1 [Compound 228]
Sugar beet; [1]
  Sugarbeets plant response rating: 0
Sugar beet; [2]
  Sugarbeets plant response rating: 0
Sugar beet; [3]
  Plant response rating, Sugarbeets: 0
Sugar beet; [4]
  Sugarbeets plant response rating: 0
Sugar beet; [5]
  Sugarbeets plant response rating: 0
Sugar beet; [6]
  Sugarbeets plant response rating: 0
Sugar beet; Rate 250 g/ha, Postemergence
  Plant response rating (0 to 10; 0 is no effect, 10 is complete control), Sugarbeets: 3
Sugar beet; [7]
  Sugarbeets plant response rating: 4
Duck salad; [8]
  Ducksalad plant response rating: 0
Duck salad; [9]
  Ducksalad plant response rating: 0
Duck salad; [10]
  Ducksalad plant response rating: 0
Duck salad; [11]
  Ducksalad plant response rating: 0
Purple nutsedge; [1]
  Nutsedge plant response rating: 0
Purple nutsedge; [2]
  Nutsedge plant response rating: 0
Purple nutsedge; [3]
  Plant response rating, Nutsedge: 0
Purple nutsedge; [4]
  Nutsedge plant response rating: 0
Purple nutsedge; [5]
  Nutsedge plant response rating: 0
Purple nutsedge; [6]
  Nutsedge plant response rating: 0
Purple nutsedge; Rate 250 g/ha, Postemergence
  Plant response rating (0 to 10; 0 is no effect, 10 is complete control), Nutsedge: 0
Purple nutsedge; [7]
  Nutsedge plant response rating: 0
corn; [1]
  Corn plant response rating: 0
corn; [2]
  Corn plant response rating: 0
corn; [3]
  Plant response rating, Corn: 0
corn; [4]
  Corn plant response rating: 0
corn; [5]
  Corn plant response rating: 0
corn; [6]
  Corn plant response rating: 0
corn; Rate 250 g/ha, Postemergence
  Plant response rating (0 to 10; 0 is no effect, 10 is complete control), Corn: 0
corn; [7]
  Corn plant response rating: 2
rape; [1]
  Rape plant response rating: 0
rape; [2]
  Rape plant response rating: 0
rape; [3]
  Plant response rating, Rape: 0
rape; [4]
  Rape plant response rating: 0
rape; [5]
  Rape plant response rating: 0
rape; [6]
  Rape plant response rating: 0
rape; Rate 250 g/ha, Postemergence
  Plant response rating (0 to 10; 0 is no effect, 10 is complete control), Rape: 0
rape; [7]
  Rape plant response rating: 0
blackgrass; [1]
  Blackgrass plant response rating: 0
blackgrass; [2]
  Blackgrass plant response rating: 0
blackgrass; [3]
  Plant response rating, Blackgrass: 0
blackgrass; [4]
  Blackgrass plant response rating: 0
blackgrass; [5]
  Blackgrass plant response rating: 0
blackgrass; [6]
  Blackgrass plant response rating: 0
blackgrass; Rate 250 g/ha, Postemergence
  Plant response rating (0 to 10; 0 is no effect, 10 is complete control), Blackgrass: 0
blackgrass; [7]
  Blackgrass plant response rating: 0
wheat; [1]
  Wheat plant response rating: 0
wheat; [2]
  Wheat plant response rating: 0
wheat; [3]
  Plant response rating, Wheat: 0
wheat; [4]
  Wheat plant response rating: 0
wheat; [5]
  Wheat plant response rating: 0
wheat; [6]
  Wheat plant response rating: 0
wheat; Rate 250 g/ha, Postemergence
  Plant response rating (0 to 10; 0 is no effect, 10 is complete control), Wheat: 0
wheat; [7]
  Wheat plant response rating: 0
Surinam grass; [1]
  B. signalgrass plant response rating: 0
Surinam grass; Preemergence, Rate 250 g/ha, scale 0 to 10, 0 is no effect, 10 is complete control
  B. signalgrass plant response rating: 0
Surinam grass; [3]
  Plant response rating, B. signalgrass: 0
Surinam grass; [4]
  B. signalgrass plant response rating: 0
Surinam grass; Rate 125 g/ha, Postemergence, scale 0 (no effect) to 10 (complete control)
  B. signalgrass plant response rating: 0
Surinam grass; [6]
  B. signalgrass plant response rating: 0
Surinam grass; Rate 250 g/ha, Postemergence
  Plant response rating (0 to 10; 0 is no effect, 10 is complete control), B. signalgrass: 0
Surinam grass; [7]
  B. signalgrass plant response rating: 0
crabgrass; [1]
  Crabgrass plant response rating: 0
crabgrass; [2]
  Crabgrass plant response rating: 1
crabgrass; [3]
  Plant response rating, Crabgrass: 2
crabgrass; [4]
  Crabgrass plant response rating: 0
crabgrass; [5]
  Crabgrass plant response rating: 0
crabgrass; [6]
  Crabgrass plant response rating: 0
crabgrass; Rate 250 g/ha, Postemergence
  Plant response rating (0 to 10; 0 is no effect, 10 is complete control), Crabgrass: 0
crabgrass; [7]
  Crabgrass plant response rating: 0
Giant foxtail; [2]
  Giant foxtail plant response rating: 9
Giant foxtail; [3]
  Plant response rating, Giant foxtail: 9
Giant foxtail; [4]
  Giant foxtail plant response rating: 0
Giant foxtail; [5]
  Giant foxtail plant response rating: 0
Giant foxtail; [6]
  Giant foxtail plant response rating: 6
Giant foxtail; Rate 250 g/ha, Postemergence
  Plant response rating (0 to 10; 0 is no effect, 10 is complete control), Giant foxtail: 0
Giant foxtail; [7]
  Giant foxtail plant response rating: 0
Wild oat; [1]
  Wild oats plant response rating: 0
Wild oat; [2]
  Wild oats plant response rating: 0
Wild oat; [3]
  Plant response rating, Wild oats: 0
Wild oat; [4]
  Wild oats plant response rating: 0
Wild oat; [5]
  Wild oats plant response rating: 0
Wild oat; [6]
  Wild oats plant response rating: 0
Wild oat; Rate 250 g/ha, Postemergence
  Plant response rating (0 to 10; 0 is no effect, 10 is complete control), Wild oats: 0
Wild oat; [7]
  Wild oats plant response rating: 0
Smallflower flatsedge; [8]
  S. Flatsedge plant response rating: 0
Smallflower flatsedge; [9]
  S. Flatsedge plant response rating: 0
Smallflower flatsedge; [10]
  S. Flatsedge plant response rating: 0
Smallflower flatsedge; [11]
  S. Flatsedge plant response rating: 0
soybean; [1]
  Soybean plant response rating: 0
soybean; [2]
  Soybean plant response rating: 0
soybean; [3]
  Plant response rating, Soybean: 0
soybean; [4]
  Soybean plant response rating: 0
soybean; [5]
  Soybean plant response rating: 0
soybean; [6]
  Soybean plant response rating: 0
soybean; Rate 250 g/ha, Postemergence
  Plant response rating (0 to 10; 0 is no effect, 10 is complete control), Soybean: 1
soybean; [7]
  Soybean plant response rating: 1
morningglory; [1]
  Morningglory plant response rating: 0
morningglory; [2]
  Morningglory plant response rating: 0
morningglory; [3]
  Plant response rating, Morningglory: 0
morningglory; [4]
  Morningglory plant response rating: 2
morningglory; [5]
  Morningglory plant response rating: 3
morningglory; [6]
  Morningglory plant response rating: 0
morningglory; Rate 250 g/ha, Postemergence
  Plant response rating (0 to 10; 0 is no effect, 10 is complete control), Morningglory: 3
morningglory; [7]
  Morningglory plant response rating: 9
cocklebur; [1]
  Cocklebur plant response rating: 0
cocklebur; [2]
  Cocklebur plant response rating: 0
cocklebur; [3]
  Plant response rating, Cocklebur: 0
cocklebur; [4]
  Cocklebur plant response rating: 0
cocklebur; [5]
  Cocklebur plant response rating: 0
cocklebur; [6]
  Cocklebur plant response rating: 0
cocklebur; Rate 250 g/ha, Postemergence
  Plant response rating (0 to 10; 0 is no effect, 10 is complete control), Cocklebur: 0
cocklebur; [7]
  Cocklebur plant response rating: 0
velvetleaf; [1]
  Velvetleaf plant response rating: 0
velvetleaf; [2]
  Velvetleaf plant response rating: 0
velvetleaf; [3]
  Plant response rating, Velvetleaf: 0
velvetleaf; [4]
  Velvetleaf plant response rating: 0
velvetleaf; [5]
  Velvetleaf plant response rating: 0
velvetleaf; [6]
  Velvetleaf plant response rating: 0
velvetleaf; Rate 250 g/ha, Postemergence
  Plant response rating (0 to 10; 0 is no effect, 10 is complete control), Velvetleaf: 0
velvetleaf; [7]
  Velvetleaf plant response rating: 0
